Measured values published in publication PMC5884628 (International journal of biological macromolecules, 2016).

What was measured:
Pseudomonas aeruginosa = conditions: ref [26], [27], cited from earlier work
Staphylococcus aureus = conditions: ref [26], [27], cited from earlier work
Escherichia coli = conditions: ref [26], [27]; cited from earlier work
[1] = test system: null E. coli strain (pUC118/DK8); assay: Growth of null E. coli in the presence of venom peptides; assay type: cell-based, Escherichia coli; conditions: null strain in comparison to wild-type
erythrocytes = conditions: ref [26], [27]; cited from earlier work
[2] = test system: human pathogenic bacteria; multi-drug resistant bacterial strains; conditions: broad spectrum of microbes; ref [26], [27]; cited from earlier work
P. aeruginosa = conditions: rat models; ref [26], [27]; cited from earlier work
[3] = test system: wild-type E. coli strain (pBWU13.4/DK8); assay: Growth of wild-type E. coli in the presence of venom peptides; assay type: cell-based, Escherichia coli; conditions: wild-type in comparison to null strain
[4] = test system: wild-type membrane bound F1Fo ATP synthase; assay: Inhibition of membrane bound F1Fo ATPase activity by venom peptides; assay type: biochemical, Escherichia coli; conditions: 60 min preincubation at RT, pH 8.0; Fig. 2
[5] = ref [26], [27]; cited from earlier work
melanoma cell = conditions: ref [31]; cited from earlier work
[6] = test system: burns and acute infections; conditions: ref [26], [27]; cited from earlier work
E. coli = conditions: ref [18], [19]; cited from earlier work
E. coli ATP synthase = conditions: ref [18], [19]; cited from earlier work

Substance	effectiveness against drug-resistant Pseudomonas aeruginosa (Pseudomonas aeruginosa; drug-resistant)	time to kill P. aeruginosa (Pseudomonas aeruginosa)	effectiveness against drug-resistant Staphylococcus aureus (Staphylococcus aureus; drug-resistant)	time to kill S. aureus (Staphylococcus aureus)	effectiveness against drug-resistant Escherichia coli (Escherichia coli)	inhibition of null E. coli (in words) [1]	hemolytic activity (erythrocytes)	antimicrobial activity in comparison to gentamicin, ampicillin, or bacitracin [2]	P. aeruginosa colony formation (P. aeruginosa)	subsequent infection and inflammation (P. aeruginosa)	inhibition of wild-type E. coli (in words) [3]	inhibition of ATP synthase (in words) [4]	cytotoxic activity [5]	melanoma cell proliferation (melanoma cell)	effectiveness in burns and acute infections [6]	E. coli growth (E. coli)	inhibition of E. coli ATP synthase (E. coli ATP synthase)
KFFRKLKKSVKKRAKEFFKKPRVIGVSIPF [BF-30]	effective	less than 120 minutes	effective	less than 120 minutes	effective	partial inhibition	no obvious hemolytic	stronger antimicrobial activity	significantly reduced	prevented	potent inhibition	strong inhibition of ATP synthase	no obvious hemolytic or cytotoxic activity	selectively inhibit melanoma cell proliferation	effective		
melittin																abrogation of E. coli growth	potently inhibit
